# Assay results: patent US20250263370A1 (Tay Therapeutics Limited, priority 2022, published 2025)
# Entries after “also recorded” stand apart in the source; their conditions may differ.
# Test system: collagen-induced arthritis
# Test: Histopathologic analysis of H&E-stained hind limbs of CIA rats
# Assay type: in vivo, Lewis rat
# Details: for Number of animals: Erosion/Ulcer, cartilaginous, Marked / Number of animals: Erosion/Ulcer, cartilaginous, Mild / Number of animals: Erosion/Ulcer, cartilaginous, Minimal / Number of animals: Erosion/Ulcer, cartilaginous, Moderate / Number of animals: Granulation tissue, Marked / Number of animals: Granulation tissue, Mild / Number of animals: Granulation tissue, Minimal / Number of animals: Granulation tissue, Moderate / Number of animals: Increased bone, periosteum, Marked / Number of animals: Increased bone, periosteum, Mild / Number of animals: Increased bone, periosteum, Minimal / Number of animals: Increased bone, periosteum, Moderate / Number of animals: Increased eroded surface, bone, Marked / Number of animals: Increased eroded surface, bone, Mild / Number of animals: Increased eroded surface, bone, Minimal / Number of animals: Increased eroded surface, bone, Moderate / Number of animals: Mixed cell inflammation, Marked / Number of animals: Mixed cell inflammation, Mild / Number of animals: Mixed cell inflammation, Minimal / Number of animals: Mixed cell inflammation, Moderate / Number of animals: No Visible Lesions: hind limbs, CIA induced, 8 animals examined
# [1] = CIA rats, daily P.O. (group 4), hind limb H&E
# [2] = CIA rats, daily P.O. for 21 days
# [3] = CIA rats, 3 mg/kg (group 5), hind limb H&E
# [4] = CIA rats, 10 mg/kg (group 6), hind limb H&E
# [5] = CIA rats, 30 mg/kg (group 7), hind limb H&E
# Source text: Hind limbs were collected following euthanasia, with the left limb being used for H&E staining.
# H&E-stained slides of designated tissues from animals were transferred to an independent pathologist for microscopic evaluation (SPFBio). Samples were assigned the histologic grades based on the severity of change from tissue where CIA was not induced. Histology grades assigned were as follows: grade 1 (minimal change), grade 2 (mild change), grade 3 (moderate change), grade 4 (marked change), and grade 5 (severe change).
# Moderate inflammation was also associated with increased edema fluid, fibrin, and cellular debris. Marked mixed cell inflammation was characterized by dense, widespread accumulations of neutrophils and macrophages with lesser number of lymphocytes within one or more joint spaces, synovium and periarticular soft tissues. Marked inflammation was also associated with abundant edema fluid, fibrin, and cellular debris.
# Marked granulation tissue (pannus) was associated with inflammation and was characterized by widespread fibrovascular connective tissue that expanded/replaced the periarticular soft tissues of one or more joints, extended into/expanded joint spaces, was contiguous with areas of erosion/ulcer in articular cartilage and/or increased eroded surface of bone, and variably extended along the diaphysis.
# Instances of minimal increased eroded surface were not associated with fragments of bone contiguous and/or surrounded by granulation tissue. […] In some areas, increased eroded surfaces were contiguous with areas of erosion/ulcer in the articular cartilages. Instance of marked increased eroded surface were often associated with fragments of bone contiguous with and/or surrounded by granulation tissue.
# This observation was typically most pronounced at joint margins (transition zone). The ulceration was often associated with inflammation and granulation tissue extending through the defect to the subchondral bone.
# Marked increased periosteal bone (periosteal bone formation) was characterized by extensive areas of increased bone matrix and numerous prominent osteoblasts lining trabecular surfaces along the metaphysis and/or diaphysis of one or more bones. In some areas, increased periosteal bone was contiguous with increased eroded surface and/or erosion/ulcer at articular cartilage.
smiles,measurement,setting,value
CNC(=O)c1cc(C(=O)NC2CC2)cn(Cc2ccccc2)c1=O [GSK620],erosion/ulcer in articular cartilage,[1],mild and mild to moderate
same,granulation tissue (pannus),[1],mild and mild to moderate
same,increased eroded surface of bone (bone resorption),[1],mild and minimal to moderate
same,increased periosteal bone (periosteal bone formation),[1],mild and mild to moderate
same,mixed cell inflammation,[1],moderate
same,"pathologic observations after microscopic evaluation, overall",[2],at a lower level relative to samples from animals in the CIA-induced group
same,"Number of animals: Erosion/Ulcer, cartilaginous, Marked",,0
same,"Number of animals: Erosion/Ulcer, cartilaginous, Mild",,6
same,"Number of animals: Erosion/Ulcer, cartilaginous, Minimal",,0
same,"Number of animals: Erosion/Ulcer, cartilaginous, Moderate",,2
same,"Number of animals: Granulation tissue, Marked",,0
same,"Number of animals: Granulation tissue, Mild",,4
same,"Number of animals: Granulation tissue, Minimal",,0
same,"Number of animals: Granulation tissue, Moderate",,4
same,"Number of animals: Increased bone, periosteum, Marked",,0
same,"Number of animals: Increased bone, periosteum, Mild",,6
same,"Number of animals: Increased bone, periosteum, Minimal",,0
same,"Number of animals: Increased bone, periosteum, Moderate",,2
same,"Number of animals: Increased eroded surface, bone, Marked",,0
same,"Number of animals: Increased eroded surface, bone, Mild",,4
same,"Number of animals: Increased eroded surface, bone, Minimal",,1
same,"Number of animals: Increased eroded surface, bone, Moderate",,3
same,"Number of animals: Mixed cell inflammation, Marked",,0
same,"Number of animals: Mixed cell inflammation, Mild",,0
same,"Number of animals: Mixed cell inflammation, Minimal",,0
same,"Number of animals: Mixed cell inflammation, Moderate",,8
same,Number of animals: No Visible Lesions,,0
C[C@@H]1C[C@H]2[C@@H]3CCC4=CC(=O)C=C[C@]4(C)[C@@]3(F)[C@@H](O)C[C@]2(C)[C@@]1(O)C(=O)CO [dexamethasone],"pathologic observations after microscopic evaluation, overall",[2],No pathologic observations were noted
same,"pathologic observations after microscopic evaluation, overall","CIA rats, daily P.O. for 21 days, listed as Dexamethasone",no histopathological observations noted
same,"Number of animals: Erosion/Ulcer, cartilaginous, Marked",,0
same,"Number of animals: Erosion/Ulcer, cartilaginous, Mild",,0
same,"Number of animals: Erosion/Ulcer, cartilaginous, Minimal",,0
same,"Number of animals: Erosion/Ulcer, cartilaginous, Moderate",,0
same,"Number of animals: Granulation tissue, Marked",,0
same,"Number of animals: Granulation tissue, Mild",,0
same,"Number of animals: Granulation tissue, Minimal",,0
same,"Number of animals: Granulation tissue, Moderate",,0
same,"Number of animals: Increased bone, periosteum, Marked",,0
same,"Number of animals: Increased bone, periosteum, Mild",,0
same,"Number of animals: Increased bone, periosteum, Minimal",,0
same,"Number of animals: Increased bone, periosteum, Moderate",,0
same,"Number of animals: Increased eroded surface, bone, Marked",,0
same,"Number of animals: Increased eroded surface, bone, Mild",,0
same,"Number of animals: Increased eroded surface, bone, Minimal",,0
same,"Number of animals: Increased eroded surface, bone, Moderate",,0
same,"Number of animals: Mixed cell inflammation, Marked",,0
same,"Number of animals: Mixed cell inflammation, Mild",,0
same,"Number of animals: Mixed cell inflammation, Minimal",,0
same,"Number of animals: Mixed cell inflammation, Moderate",,0
same,Number of animals: No Visible Lesions,,8
"CNC(=O)c1[nH]c(C(=O)NC2CCC2)cc1O[C@@H](C)c1ccccc1 (stereo in doubt) [Example 101, N^5-cyclobutyl-N^2-methyl-3-(1-phenylethoxy)-1H-pyrrole-2,5-dicarboxamide]","Number of animals: Erosion/Ulcer, cartilaginous, Marked",3 mg/kg,0
same,"Number of animals: Erosion/Ulcer, cartilaginous, Mild",3 mg/kg,2
same,"Number of animals: Erosion/Ulcer, cartilaginous, Minimal",3 mg/kg,0
same,"Number of animals: Erosion/Ulcer, cartilaginous, Moderate",3 mg/kg,6
same,"Number of animals: Granulation tissue, Marked",3 mg/kg,0
same,"Number of animals: Granulation tissue, Mild",3 mg/kg,1
same,"Number of animals: Granulation tissue, Minimal",3 mg/kg,0
same,"Number of animals: Granulation tissue, Moderate",3 mg/kg,7
same,"Number of animals: Increased bone, periosteum, Marked",3 mg/kg,0
same,"Number of animals: Increased bone, periosteum, Mild",3 mg/kg,7
same,"Number of animals: Increased bone, periosteum, Minimal",3 mg/kg,0
same,"Number of animals: Increased bone, periosteum, Moderate",3 mg/kg,1
same,"Number of animals: Increased eroded surface, bone, Marked",3 mg/kg,0
same,"Number of animals: Increased eroded surface, bone, Mild",3 mg/kg,5
same,"Number of animals: Increased eroded surface, bone, Minimal",3 mg/kg,0
same,"Number of animals: Increased eroded surface, bone, Moderate",3 mg/kg,3
same,"Number of animals: Mixed cell inflammation, Marked",3 mg/kg,1
same,"Number of animals: Mixed cell inflammation, Mild",3 mg/kg,0
same,"Number of animals: Mixed cell inflammation, Minimal",3 mg/kg,0
same,"Number of animals: Mixed cell inflammation, Moderate",3 mg/kg,7
same,Number of animals: No Visible Lesions,3 mg/kg,0
same,"Number of animals: Erosion/Ulcer, cartilaginous, Marked",10 mg/kg,0
same,"Number of animals: Erosion/Ulcer, cartilaginous, Mild",10 mg/kg,3
same,"Number of animals: Erosion/Ulcer, cartilaginous, Minimal",10 mg/kg,1
same,"Number of animals: Erosion/Ulcer, cartilaginous, Moderate",10 mg/kg,3
same,"Number of animals: Granulation tissue, Marked",10 mg/kg,0
same,"Number of animals: Granulation tissue, Mild",10 mg/kg,3
same,"Number of animals: Granulation tissue, Minimal",10 mg/kg,0
same,"Number of animals: Granulation tissue, Moderate",10 mg/kg,3
same,"Number of animals: Increased bone, periosteum, Marked",10 mg/kg,0
same,"Number of animals: Increased bone, periosteum, Mild",10 mg/kg,4
same,"Number of animals: Increased bone, periosteum, Minimal",10 mg/kg,1
same,"Number of animals: Increased bone, periosteum, Moderate",10 mg/kg,2
same,"Number of animals: Increased eroded surface, bone, Marked",10 mg/kg,0
same,"Number of animals: Increased eroded surface, bone, Mild",10 mg/kg,2
same,"Number of animals: Increased eroded surface, bone, Minimal",10 mg/kg,2
same,"Number of animals: Increased eroded surface, bone, Moderate",10 mg/kg,3
same,"Number of animals: Mixed cell inflammation, Marked",10 mg/kg,2
same,"Number of animals: Mixed cell inflammation, Mild",10 mg/kg,2
same,"Number of animals: Mixed cell inflammation, Minimal",10 mg/kg,1
same,"Number of animals: Mixed cell inflammation, Moderate",10 mg/kg,3
same,Number of animals: No Visible Lesions,10 mg/kg,0
same,"Number of animals: Erosion/Ulcer, cartilaginous, Marked",30 mg/kg,0
same,"Number of animals: Erosion/Ulcer, cartilaginous, Mild",30 mg/kg,4
same,"Number of animals: Erosion/Ulcer, cartilaginous, Minimal",30 mg/kg,1
same,"Number of animals: Erosion/Ulcer, cartilaginous, Moderate",30 mg/kg,0
same,"Number of animals: Granulation tissue, Marked",30 mg/kg,0
same,"Number of animals: Granulation tissue, Mild",30 mg/kg,1
same,"Number of animals: Granulation tissue, Minimal",30 mg/kg,2
same,"Number of animals: Granulation tissue, Moderate",30 mg/kg,4
same,"Number of animals: Increased bone, periosteum, Marked",30 mg/kg,0
same,"Number of animals: Increased bone, periosteum, Mild",30 mg/kg,2
same,"Number of animals: Increased bone, periosteum, Minimal",30 mg/kg,1
same,"Number of animals: Increased bone, periosteum, Moderate",30 mg/kg,0
same,"Number of animals: Increased eroded surface, bone, Marked",30 mg/kg,0
same,"Number of animals: Increased eroded surface, bone, Mild",30 mg/kg,4
same,"Number of animals: Increased eroded surface, bone, Minimal",30 mg/kg,0
same,"Number of animals: Increased eroded surface, bone, Moderate",30 mg/kg,0
same,"Number of animals: Mixed cell inflammation, Marked",30 mg/kg,0
same,"Number of animals: Mixed cell inflammation, Mild",30 mg/kg,3
same,"Number of animals: Mixed cell inflammation, Minimal",30 mg/kg,0
same,"Number of animals: Mixed cell inflammation, Moderate",30 mg/kg,4
same,Number of animals: No Visible Lesions,30 mg/kg,1
same,samples with pathologic observations,"CIA rats, 3 mg/kg (group 5)",All samples
same,erosion/ulcer in articular cartilage,[3],mild to moderate
same,granulation tissue (pannus),[3],mild and mild to moderate
same,increased eroded surface of bone (bone resorption),[3],mild to moderate
same,increased periosteal bone (periosteal bone formation),[3],mild to moderate
same,mixed cell inflammation,[3],moderate to marked
same,samples with pathologic observations,"CIA rats, 10 mg/kg (group 6)",All samples
same,erosion/ulcer in articular cartilage,[4],mild and moderate
same,granulation tissue (pannus),[4],mild and moderate
same,increased eroded surface of bone (bone resorption),[4],mild and moderate
same,increased periosteal bone (periosteal bone formation),[4],minimal; also recorded: moderate
same,mixed cell inflammation,[4],moderate
same,samples with no recorded pathological observations,"CIA rats, 30 mg/kg (group 7)",One out of eight
same,erosion in the articular cartilages,[5],mild
same,granulation tissue (pannus),[5],mild and moderate
same,increased eroded surface of bone (bone resorption),[5],mild
same,increased periosteal bone (periosteal bone formation),[5],mild
same,mixed cell inflammation,[5],mild and moderate
same,"pathologic observations after microscopic evaluation, overall","CIA rats, 3, 10 and 30 mg/kg (Groups 5-7)",at lower levels relative to samples from animals in the CIA-induced group (Group 2) in a dose-dependent manner
